The text below walks through data of US20220402917A1, “COMPOUND AS SMALL MOLECULE INHIBITOR PD-1/PD-L1 AND APPLICATION THEREOF” (MEDSHINE DISCOVERY INC., priority 2019, published 2022).

pIC50: −log10 of the molar value.

Assay [1] has as its target T1, PD-L1 in MDA-MR-231 cells (Homo sapiens, UniProt Q9NZQ7).
T1 construct: endogenous in cells; host or cells: MDA-MB-231
Briefly: Effect on expression level of PD-L1 in MDA-MR-231 cells (FACS). It counts as cell-based. The note with it: 24 hours incubation, FACS detection of cell surface PD-L1. The method, boiled down: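 MDA-MB-231 cells (1×10^5/well) were incubated 24 h at 37 °C with 5-fold serially diluted compounds. Cells were detached with 10 mM EDTA, then stained with anti-human PD-L1 and LIVE/DEAD dye (4 °C, 30 min) and fixed. Surface PD-L1 was measured by flow cytometry.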

Assay [2] concerns the target T2, PD1/PD-L1 (Homo sapiens, UniProt Q9NZQ7). Briefly: NFAT activity test (TCR Activitor/PD-L1 CHO cells with PD-1/NFAT Reporter-Jurkat cells). It counts as cell-based. Further details: host or cells: TCR Activitor/PD-L1 CHO cells; PD-1/NFAT Reporter-Jurkat cells. The note with it: TCR Activitor/PD-L1 CHO cells + PD-1/NFAT Reporter-Jurkat cells, 5 hours, luciferase; for pIC50: read-out: IC50, inhibitory activity on PD1/PD-L1 binding (NFAT activity test). The method, boiled down: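 TCR activator/PD-L1 CHO cells were pretreated 30 min at 37 °C with compound (20 μM to 0.25 nM, 5-fold steps, 2% DMSO). PD-1/NFAT reporter Jurkat cells were then added for 5 h at 37 °C. NFAT-driven luciferase read by Bright-Glo luminescence, normalised to Min/Max, IC50 from 4-parameter fit.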
Target sequence in this assay (Q9NZQ7 19-290): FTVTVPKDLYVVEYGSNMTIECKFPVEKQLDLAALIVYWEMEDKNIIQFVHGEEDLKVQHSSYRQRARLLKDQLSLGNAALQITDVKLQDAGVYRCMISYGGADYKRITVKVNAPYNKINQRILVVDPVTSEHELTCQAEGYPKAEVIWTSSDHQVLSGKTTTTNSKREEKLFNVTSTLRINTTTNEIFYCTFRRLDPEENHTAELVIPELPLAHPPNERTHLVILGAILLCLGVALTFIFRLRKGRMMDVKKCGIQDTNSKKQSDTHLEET

Assay [3] deals with T2, PD1/PD-L1. Briefly: PD-1/PD-L1 homogeneous time-resolved fluorescence (HTRF) binding experiment. The note with it: HTRF (TR-FRET), PD-L1-biotin, PD1-Eu. Further details: purchased BPS Biosciences. The source says:
Experimental Example 1: PD-1/PD-L1 Homogenouse Time-Resolved Fluorescence (HTRF) Binding Experiment
When the PD-1 molecule as the donor is very close to the PD-L1 molecule as the acceptor, the donor molecule will transfer the energy to the receptor molecule, which in turn causes the receptor molecule to emit fluorescence. The ability of small molecules to prevent the binding of PD-L1 to PD-1 can be tested by detecting the intensity of fluorescence. A homogeneous time-resolved fluorescence (HTRF) binding experiment is used to detect the ability of the compounds of the present disclosure to inhibit the binding of PD-1/PD-L1.
PD1/PD-L1 TR-FRET detection kit was purchased from BPS Biosciences. Nivo multi-label analyzer (PerkinElmer).
PD1-Eu, Dye-labeled acceptor, PD-L1-biotin and compounds to be tested were diluted with the buffer in the kit. The compounds to be tested were subjected to 5-fold dilution to eight concentration gradients with a row gun. That is, from 40 μM to 0.5 nM, the DMSO concentration was 4%, and a double-well experiment was set up. 5 μL of inhibitor with each concentration gradient were added to the microwell plate, and 5 μL buffer containing 4% DMSO and 5 μL PD-L1-biotin (PD-L1-biotin) (60 nM) were added into well with the maximum signal (Max) and the well with the minimum signal (Min), only 5 μL of buffer was added to the well with the minimum signal (Min), and the incubation was conducted at 25° C. for 20 minutes. After the incubation was completed, 5 μL of diluted PD1-Eu (10 nM) and […] were added to each well. The reaction system was placed at 25° C. for 90 minutes. The TR-FRET signal was read by a multi-label analyzer after the reaction was completed.
Using the equation (sample−Min)/(Max−Min)×100% to convert the raw data into inhibition rate, and the IC50 value can be obtained by curve fitting with four parameters (obtained from log(inhibitor) vs. response—Variable slope mode in GraphPad Prism). Table 1 provides the inhibitory activity of the compounds of the examples of the present disclosure on PD1/PD-L1 binding
Target sequence in this assay (Q9NZQ7 19-239 limits assumed): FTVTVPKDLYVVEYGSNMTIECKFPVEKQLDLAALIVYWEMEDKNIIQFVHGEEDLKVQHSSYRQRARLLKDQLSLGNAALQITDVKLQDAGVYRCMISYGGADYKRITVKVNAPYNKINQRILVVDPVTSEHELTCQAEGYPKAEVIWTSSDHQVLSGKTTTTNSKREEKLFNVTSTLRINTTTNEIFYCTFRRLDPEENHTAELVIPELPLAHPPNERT

T1 sequence (Q9NZQ7 19-290): as the sequence (Q9NZQ7 19-290) above

For the compound `Cc1cc(C(=O)Nc2cccc(-c3cccc(NC(=O)c4ccc(CNCCO)cn4)c3Cl)c2C)nc2c1CCN(CCO)C2` [Compound 6], the pIC50 in assay [1] was 7.03; on PD1/PD-L1 [2], 7.84; on PD1/PD-L1 [3] it was 8.33. Moreover, the “Maximum effect (induction fold)” value at PD1/PD-L1 [2] stood at 3.54 induction fold.
On to `Cc1c(NC(=O)c2ccc(CNCCO)cn2)cccc1-c1cccc(NC(=O)c2cc(NCCO)c3c(n2)CN(CCO)CC3)c1Cl` [Compound 18], for which the pIC50 is 7.15 in assay [1], 7.10 on PD1/PD-L1 [2] and 8.50 on PD1/PD-L1 [3]. The “Maximum effect (induction fold)” value at PD1/PD-L1 [2] stood at 3.77 induction fold.
On the same counts, the results for `Cc1cc(C(=O)Nc2cccc(-c3cccc(NC(=O)c4ccc(CNCCO)cn4)c3C)c2Cl)nc2c1CCN(CC(=O)O)C2` [Compound 17] are 9.12, 7.60, 8.83 and 4.23 induction fold.
For the compound `Cc1cc(C(=O)Nc2cccc(-c3cccc(Nc4nc(C(F)F)nc5cc(CN6CC[C@@H](O)C6)cnc45)c3C)c2Cl)nc2c1CCN(CC(=O)O)C2` [Compound 23], the values for the pIC50 (in assay [1]; on PD1/PD-L1 [2]; at PD1/PD-L1 [3]) were 9.66, 7.74 and 8.43, respectively. Moreover, the “Maximum effect (induction fold)” value on PD1/PD-L1 [2] was 4.84 induction fold.
